Data published in patent US9302999B2, “Substituted triazoles as herbicides” (E. I. DU PONT DE NEMOURS AND COMPANY, priority 2012, dated 2016).

Experiments:
Format in all cases: in vivo
corn (Zea mays) = assay: Test A pre-/postemergence: corn
How it was run: (§1)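 Visual 0–100 injury ratings (0 no effect, 100 complete control) taken about ten days after treatment, relative to untreated controls. Preemergence treatment was a directed soil spray; postemergence plants were 2–10 cm tall at one- to two-leaf stage. Soil: loam/sand blend.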

[1] = tested on: barnyardgrass (Echinochloa crus-galli); assay: Test B flooded paddy: barnyardgrass; conditions: Flood; 250 g ai/ha; applied to paddy water at 2-leaf stage; visually evaluated after 13 to 15 days
How it was run: (§2)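 Plants were grown to the 2-leaf stage and pots flooded to 3 cm above soil. Compounds were applied directly into the paddy water, with depth kept for the test. After 13–15 days in greenhouse, response was rated visually against controls on a 0 (no effect) to 100 (complete control) scale.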

[2] = tested on: wheat (Triticum aestivum); assay: Test A pre-/postemergence: wheat
How it was run: as §1

[3] = tested on: sedge, umbrella (small-flower umbrella sedge Cyperus difformis); assay: Test B flooded paddy: sedge, umbrella; conditions: Flood; 250 g ai/ha; applied to paddy water at 2-leaf stage; visually evaluated after 13 to 15 days
How it was run: as §2

[4] = tested on: ducksalad (Heteranthera limosa); assay: Test B flooded paddy: ducksalad; conditions: Flood; 250 g ai/ha; applied to paddy water at 2-leaf stage; visually evaluated after 13 to 15 days
How it was run: as §2

[5] = tested on: barnyardgrass (Echinochloa crus-galli); assay: Test A pre-/postemergence: barnyardgrass
How it was run: as §1

[6] = tested on: foxtail, giant (giant foxtail, Setaria faberii); assay: Test A pre-/postemergence: foxtail, giant
How it was run: as §1

[7] = tested on: pigweed (Amaranthus retroflexus); assay: Test A pre-/postemergence: pigweed
How it was run: as §1

[8] = tested on: velvetleaf (Abutilon theophrasti); assay: Test A pre-/postemergence: velvetleaf
How it was run: as §1

rice (Oryza sativa) = assay: Test B flooded paddy: rice; conditions: Flood; 250 g ai/ha; applied to paddy water at 2-leaf stage; visually evaluated after 13 to 15 days
How it was run: as §2

[9] = tested on: morningglory (Ipomoea spp.); assay: Test A pre-/postemergence: morningglory
How it was run: as §1

[10] = tested on: crabgrass, large (large crabgrass, Digitaria sanguinalis); assay: Test A pre-/postemergence: crabgrass, large
How it was run: as §1

[11] = Postemergence, 125 g ai/ha, 0 to 100 scale, 0 is no effect, 100 is complete control
[12] = Postemergence, 500 g ai/ha, 0 to 100 scale, 0 is no effect, 100 is complete control
[13] = Preemergence, 125 g ai/ha, 0 to 100 scale where 0 is no effect and 100 is complete control
[14] = Preemergence, 500 g ai/ha, 0 to 100 scale (0 no effect, 100 complete control)

Cc1nn(-c2ccc(C(F)(F)F)cn2)nc1C(=NO)c1cccc(C(F)(F)F)c1 [Compound 201]
50: Morningglory plant response rating [9, 12]
10: Plant response rating, Corn (corn (Zea mays); [11]) | Wheat plant response rating [2, 12] | Barnyardgrass plant response rating [5, 12] | Foxtail, Giant plant response rating [6, 12] | Plant response rating, Pigweed [7, 14] | Plant response rating, Morningglory [9, 11]
40: Velvetleaf plant response rating [8, 12]
0: Plant response rating, Corn (corn (Zea mays); [13]) | Plant response rating, Corn (corn (Zea mays); [14]) | Plant response rating, Barnyardgrass (0 to 100 scale, 0 is no effect, 100 is complete control) [1] | Plant response rating, Wheat [2, 11] | Plant response rating, Wheat [2, 13] | Plant response rating, Wheat [2, 14] | Plant response rating, Sedge, Umbrella (0 to 100 scale, 0 is no effect, 100 is complete control) [3] | Plant response rating, Ducksalad (0 to 100 scale, 0 is no effect, 100 is complete control) [4] | Plant response rating, Barnyardgrass [5, 11] | Plant response rating, Barnyardgrass [5, 13] | Plant response rating, Barnyardgrass [5, 14] | Plant response rating, Foxtail, Giant [6, 11] | Plant response rating, Foxtail, Giant [6, 13] | Plant response rating, Pigweed [7, 13] | Plant response rating, Velvetleaf [8, 13] | Plant response rating, Velvetleaf [8, 14] | Plant response rating, Rice (0 to 100 scale, 0 is no effect, 100 is complete control) (rice (Oryza sativa)) | Plant response rating, Morningglory [9, 13] | Plant response rating, Morningglory [9, 14] | Plant response rating, Crabgrass, Large [10, 13]
30: Crabgrass, Large plant response rating [10, 12]
100: Pigweed plant response rating [7, 12]
60: Plant response rating, Pigweed [7, 11]
20: Corn plant response rating (corn (Zea mays); [12]) | Plant response rating, Foxtail, Giant [6, 14] | Plant response rating, Velvetleaf [8, 11] | Plant response rating, Crabgrass, Large [10, 11] | Plant response rating, Crabgrass, Large [10, 14]
